According to patent US5506122A, “Process for producing nucleosides” (Yamasa Shoyu Kabushiki Kaisha, priority 1989, dated 1996):
Where two headings read alike, the source gives them in different places.

Key:
[1] = molecular target: T1, purine nucleoside phosphorylase (Geobacillus stearothermophilus, UniProt P77834); test: Substrate specificity: phosphorolysis of purine nucleoside substrates by purified enzyme; assay type: biochemical, Bacillus stearothermophilus TH6-2; conditions: for activity at 10000 µM: 10 min; for Substrate specificity of purine nucleoside phosphorylase, in words: within the range tested
T1 construct: nucleoside phosphorylase obtained by extraction/purification from Bacillus stearothermophilus TH6-2; endogenous in cells; host or cells: Bacillus stearothermophilus TH6-2 (FERM BP-2758), enzyme purified in house from the wild cells
T1 sequence (P77834 1-274): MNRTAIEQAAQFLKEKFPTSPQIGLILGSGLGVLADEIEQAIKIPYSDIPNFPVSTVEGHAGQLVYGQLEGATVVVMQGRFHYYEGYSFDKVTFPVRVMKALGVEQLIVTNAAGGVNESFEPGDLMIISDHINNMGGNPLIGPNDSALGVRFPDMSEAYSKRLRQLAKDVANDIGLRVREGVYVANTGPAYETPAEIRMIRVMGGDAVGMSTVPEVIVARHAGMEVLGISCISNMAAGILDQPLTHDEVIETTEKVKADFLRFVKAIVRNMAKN
Experimental: Into 1.0 ml of a substrate solution (aqueous solution of pH 8.0 containing 20 mM inosine and 0.1M potassium dihydrogenphosphate) is added 20 μl of an enzyme solution (50 mM acetate buffer (pH 6.0) containing 1 μg of purified enzyme), and the reaction is carried out at 50° C. for 10 minutes. Then the reaction is stopped by addition of HCl to a final concentration of 0.1N, and also cooling at 0° C. for 10 minutes. Next, the reaction is subjected to centrifugation, and the supernatant obtained is then subjected to the HPLC method (column: YMC A-312 (manufactured by Yamamura Kagaku Kenkyusho, K.K.), eluent: 20 mM Tris-HCl buffer (pH 7.5) containing 5.0% acetonitrile, detection: 260 nm) to quantitate the hypoxanthine formed. The enzyme amount forming 1 μmol of hypoxanthine per one minute is defined as one unit ("U").
(§1) By the use of an aqueous solution of pH 8.0 containing 10 mM of a nucleoside and 50 mM of potassium dihydrogenphosphate as a substrate solution, the reaction is carried out at 50° C. for 10 minutes, and after the reaction, except for quantitating the base of the nucleoside according to the HPLC method, the same method as in the assay of purine nucleoside phosphorylase activity is conducted.

[2] = molecular target: T2, pyrimidine nucleoside phosphorylase (Geobacillus stearothermophilus, UniProt P77836); test: Substrate specificity: phosphorolysis of pyrimidine nucleoside substrates by purified enzyme; assay type: biochemical, Bacillus stearothermophilus TH6-2; conditions: for Amount of Base Formed / Relative Activity: 10 mM nucleoside, 50 mM potassium dihydrogenphosphate, pH 8.0, 50° C., 10 minutes; for Substrate specificity of pyrimidine nucleoside phosphorylase, in words: within the range tested
T2 construct: nucleoside phosphorylase obtained by extraction/purification from Bacillus stearothermophilus TH6-2; endogenous in cells; host or cells: Bacillus stearothermophilus TH6-2 (FERM BP-2758), enzyme purified in house from the wild cells
T2 sequence (P77836 1-433): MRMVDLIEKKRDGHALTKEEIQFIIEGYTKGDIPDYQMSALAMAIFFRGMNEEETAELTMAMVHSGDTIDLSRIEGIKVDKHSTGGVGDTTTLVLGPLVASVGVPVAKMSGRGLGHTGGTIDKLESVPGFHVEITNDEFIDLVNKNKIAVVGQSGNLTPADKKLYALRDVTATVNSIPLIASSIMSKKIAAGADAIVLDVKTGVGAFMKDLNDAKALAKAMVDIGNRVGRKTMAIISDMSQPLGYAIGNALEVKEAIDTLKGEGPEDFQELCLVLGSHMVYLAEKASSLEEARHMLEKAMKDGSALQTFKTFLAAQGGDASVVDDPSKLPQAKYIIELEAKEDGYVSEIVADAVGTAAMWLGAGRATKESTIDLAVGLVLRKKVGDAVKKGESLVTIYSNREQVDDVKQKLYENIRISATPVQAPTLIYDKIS
Experimental: Except for using uridine in place of inosine in the substrate solution and quantitating uracil according to the HPLC method, the same method as in the above-described assay of purine nucleoside phosphorylase activity is conducted. The amount of enzyme forming 1 μmol of uracil per one minute is defined as one unit.
as §1

[3] = 10 mM nucleoside, 50 mM potassium dihydrogenphosphate, pH 8.0, 50° C., 10 minutes
[4] = 10 mM nucleoside, 50 mM potassium dihydrogenphosphate, pH 8.0, 50° C., 10 minutes, read-out: Relative Activity
[5] = pH 8, read-out: Relative Activity

Compound	Amount of Base Formed [1, 3] [μmol/10 min.]	activity at 10000 µM [1, 4] [%]	Amount of Base Formed [2] [μmol/10 min.]	Relative Activity [2] [%]	also measured
Nc1ncnc2c1ncn2[C@H]1C[C@H](O)[C@@H](CO)O1 [2'-Deoxyadenosine]	0	0	–	–	–
Nc1ccn([C@H]2C[C@H](O)[C@@H](CO)O2)c(=O)n1 [2'-Deoxycytidine]	–	–	0	0	–
Nc1nc2c(ncn2[C@H]2C[C@H](O)[C@@H](CO)O2)c(=O)[nH]1 [2'-Deoxyguanosine]	2.18	85	–	–	Substrate specificity of purine nucleoside phosphorylase, in words [1]: specific
OC[C@H]1O[C@@H](n2cnc3c(O)ncnc32)C[C@@H]1O [2'-Deoxyinosine]	2.54	100	–	–	Substrate specificity of purine nucleoside phosphorylase, in words [1]: specific
O=c1ccn([C@H]2C[C@H](O)[C@@H](CO)O2)c(=O)[nH]1 [2'-Deoxyuridine]	–	–	2.55	100	Substrate specificity of pyrimidine nucleoside phosphorylase, in words [2]: specific
Nc1ncnc2c1ncn2[C@@H]1O[C@H](CO)C[C@H]1O [3'-Deoxyadenosine]	0	0	–	–	–
OC[C@@H]1C[C@@H](O)[C@H](n2cnc3c(O)ncnc32)O1 [3'-Deoxyinosine]	0	0	–	–	–
Nc1ncnc2c1ncn2[C@@H]1O[C@H](CO)[C@@H](O)[C@H]1O [Adenosine]	0.15	–	–	–	activity at 10000 µM [1, 5]: 5%; Substrate specificity of purine nucleoside phosphorylase, in words [1]: does not recognize them as the substrate
Nc1ncnc2c1ncn2[C@@H]1O[C@H](CO)[C@@H](O)[C@@H]1O [Arabinofuranosyl adenine]	–	–	–	–	activity at 10000 µM [1, 5]: 0%
O=c1ccn([C@@H]2O[C@H](CO)[C@@H](O)[C@@H]2O)c(=O)[nH]1 [Arabinofuranosyl uracil]	–	–	–	0	–
O=c1ccn2c(n1)O[C@H]1[C@H](O)[C@@H](CO)O[C@H]12 [Cyclouridine]	–	–	0	0	–
Nc1ccn([C@@H]2O[C@H](CO)[C@@H](O)[C@H]2O)c(=O)n1 [Cytidine]	–	–	0	0	Substrate specificity of pyrimidine nucleoside phosphorylase, in words [2]: does not recognize them as the substrate
Nc1nc2c(ncn2[C@@H]2O[C@H](CO)[C@@H](O)[C@H]2O)c(=O)[nH]1 [Guanosine]	2.15	84	–	–	Substrate specificity of purine nucleoside phosphorylase, in words [1]: specific
OC[C@H]1O[C@@H](n2cnc3c(O)ncnc32)[C@H](O)[C@@H]1O [Inosine]	2.55	100	–	–	Substrate specificity of purine nucleoside phosphorylase, in words [1]: specific
O=c1[nH]cc([C@@H]2O[C@H](CO)[C@@H](O)[C@H]2O)c(=O)[nH]1 [Pseudouridine]	–	–	0	0	–
Cc1cn([C@@H]2O[C@H](CO)[C@@H](O)[C@H]2O)c(=O)[nH]c1=O [Ribofuranosyl thymine]	–	–	–	38	–
Cc1cn([C@H]2C[C@H](O)[C@@H](CO)O2)c(=O)[nH]c1=O [Thymidine]	–	–	1.71	67	Substrate specificity of pyrimidine nucleoside phosphorylase, in words [2]: specific
O=c1ccn([C@@H]2O[C@H](CO)[C@@H](O)[C@H]2O)c(=O)[nH]1 [Uridine]	–	–	1.73	68	Substrate specificity of pyrimidine nucleoside phosphorylase, in words [2]: specific
